# Measurements as given in patent US5514687A, “Benzopyrido piperidylidene compounds, compositions, methods of manufacture and method of use” (Schering Corporation, priority 1993, dated 1996).
# Tests used:
# Histamine = test: Histamine-induced bronchospasm in guinea pigs (in vivo, oral); parameters: species or system guinea pig; details: histamine 10 ug/kg i.v.
# Method: (§1) B. In Vivo Studies: Agonist-Induced Responses Spasmogen-Induced Bronchospasm in Guinea Pigs
# (§2) Male Hartley guinea pigs (450-550 g) were obtained from Charles River Breeding Laboratories. The animals were fasted overnight and the following day were anesthetized with 0.9 mL/kg i.p. of dialurethane (containing 0.1 g/mL dialylbarbiturikc acid, 0.4 g/mL ethylurea and 0.4 g/mL urethane). The left jugular vein was cannulated for the administration of compounds. The trachea was cannulated and the animals were venticlated by a rodent respirator at 55 strokes/min. with a stroke volume of 4 mL. A side arm to the tracheal cannula was connected to a pressure transducer to obtain a continuous measure of inflation pressure. Bronchoconstriction was measured as the percent increase in inflation pressure that peaked within 5 min. after challenge with spasmogen. The animals were challenged i.v. with either histamine (10 ug/kg) or PAF (0.4 μg/kg in isotonic saline containing 0.25% BSA). Each animal was challenged with only a single spasmogen. The effect of a compound on the bronchospasm is expressed as a percent inhibition of the increase in inflation pressure compared to the increase in a control group.
# [1] = test system: PAF-induced platelet aggregation; test: Platelet Aggregation Assay (PAF antagonism, in vitro); assay type: cell-based; details: human platelet-rich plasma, PAF 1-5×10^-8 M, 37° C.
# Method: Platelet Aggregation Assay
# Platelet-activating factor (PAF) causes aggregation of platelets by a receptor-mediated mechanism. Therefore, PAF-induced platelet aggregation provides a simple and convenient assay to screen compounds for PAF antagonism.
# Human blood (50 mL) was collected from healthy male donors in an anticoagulant solution (5 mL) containing sodium citrate (3.8%) and dextrose (2%), Blood was centrifuged at 110×g for 15 min. and the supeernatant platelet-rich plasma (PRP) carefully transferred into a polypropylene tube. Platelet-poor-plasma (PPP) was prepared by centrifuging PRP at 12,000×g for 2 min. (Beckman Microfuge B). PRP was used within 3 hr. of drawing the blood.
# PAF was dissolved In chloroform:methanol (1:1, v/v) at a concentration of 2 mg/mL and stored at -70° C. An aliquot of this solution was transferred to a polypropylene tube and dried under a flow of nitrogen gas. To the dried sample was added Hepes-e-BSA (BSA=bovine serum albumen) buffer (25 mM Hepes, pH 7.4, […], 0.7 mM MgCl2 and 0.1% BSA) to obtain a 1 mM solution and sonicated for 5 min. in a bath sonicator. This stock solution was further diluted to appropriate concentrations in Hepes-saline-BSA buffer. Collagen (Sigma) and adenosine diphosphate (ADP) (Sigma) were purchased as solutions. Test compounds were initially dissolved in dimethyl sulfoxide (DMSO) at a concentration of 50 mM and then further diluted in Hepes-saline-BSA buffer to achieve appropriate concentrations.
# When an aggregating agen such as PAF is added to PRP, platelets aggregate. An aggregometer quantifies this aggreation by measuring and comparing light (infra-red) transmission through PPP and PRP. Aggregation assays were performed using a dual-channel aggregometer (Model 440, Chrono-Log Corp., Havertown, Pa.). PRP (0.45 mL) in aggregometer cuvettes was continually stirred (37° C.). Solution (50 μL) of test compounds or vehicle were added to the PRP and, after incubation for 2 min., 10-15 μl aliquots of PAF solution were added to achieve a final concentration of 1-5×10^-8 M. In different experiments the aggregatory response was kept within a set limit by varying the concentration of PAF. Incubations were continued until the increase in light transmission reached a maximum (usually 2 min.). This increase in lighyt transmission reflecting platlet aggregation is transmitted to a computer by the Chrono-Log model 810 AGGRO/LINK interface. The AGGRO/LINK calculates the slope of transmission change, thus providing the rate of aggregation. Values for inhibition were calculated by comparing rates of aggregation obtained in the absence and the presence of the compound. […]
# PAF = test: PAF-induced bronchospasm in guinea pigs (in vivo, oral); parameters: species or system guinea pig; details: PAF 0.4 μg/kg i.v.
# Method: as §1, §2
# [2] = oral 3 mg/kg, 2 hours after drug
# [3] = oral 15 mg/kg, 8 hours after drug
# [4] = oral 5 mg/kg, 8 hours after drug
# [5] = oral 15 mg/kg, 16 hours after drug
# [6] = oral 10 mg/kg, 6 hours after drug
# [7] = oral 10 mg/kg, 16 hours after drug
IC50 [1],Compound,"Agonist Bronchospasm (in vivo)-Oral, Histamine, Inhibition (Histamine; [2])","Agonist Bronchospasm (in vivo)-Oral, Histamine, Inhibition (Histamine; [3])","Agonist Bronchospasm (in vivo)-Oral, PAF, Inhibition (PAF; [2])","Agonist Bronchospasm (in vivo)-Oral, PAF, Inhibition (PAF; [3])","Agonist Bronchospasm (in vivo)-Oral, PAF, Inhibition (PAF; oral 10 mg/kg, 2 hours after drug)","Agonist Bronchospasm (in vivo)-Oral, Histamine, Inhibition (Histamine; [4])","Agonist Bronchospasm (in vivo)-Oral, Histamine, Inhibition (Histamine; [5])","Agonist Bronchospasm (in vivo)-Oral, PAF, Inhibition (PAF; [4])","Agonist Bronchospasm (in vivo)-Oral, PAF, Inhibition (PAF; [5])","Agonist Bronchospasm (in vivo)-Oral, Histamine, Inhibition (Histamine; [6])","Agonist Bronchospasm (in vivo)-Oral, Histamine, Inhibition (Histamine; [7])","Agonist Bronchospasm (in vivo)-Oral, PAF, Inhibition (PAF; [6])","Agonist Bronchospasm (in vivo)-Oral, PAF, Inhibition (PAF; [7])"
600 nM,CC(=O)N1CCC(=C2c3ccc(Cl)cc3CCc3cccnc32)CC1 [Compound No. 1],49%,100%,3%,32%,,,,,,,,,
6000 nM,CC(=O)N1CCC(=C2c3ccc(Cl)cc3OCc3cccnc32)CC1 [Compound No. 2],,,,,27%,,,,,,,,
200 nM,O=C(c1cc[n+]([O-])cc1)N1CCC(=C2c3ccc(Cl)cc3CCc3cccnc32)CC1 [Compound No. 3],37%,,93%,,,33%,64%,12%,13%,,,,
400 nM,"O=C(c1cc[n+]([O-])cc1)N1CCC(=C2c3ccc(Cl)cc3OCc3cccnc32)CC1 [Compound No. 4, 4-(8-Chloro-5,11-dihydro 1!benzoxepino 4,3-b!pyridin-11-ylidene)-1-(4-pyridinylcarbonyl)piperidine N^1-oxide]",46%,,76%,,,,,,,73%,95%,94%,55%
